Measured values from patent publication US9567319B2, “Compound having higher inhibitory activity on protein kinase G and preparation method thereof” (Jenkem Technology Co., Ltd., (Tianjin), priority 2014, dated 2017).
Converted amounts (≈) assume the structure as drawn. “And” between values parts separate entries of the source, which are not always exact repeats. Equal values may be shown once.

Tests used:
[1] = Test of water solubility of the compounds
Protocol: At room temperature, about 0.1 g of each sample to be tested (solid materials should be ground as powder) was added to a 10 mL cylinder with a ground glass stopper. Water was gradually added. After each addition of 0.5 mL water, the resulting solution was stirred for 10 min for mixing, and was then visually examined for the presence of any undissolved sample. If there still exists undissolved sample or undissolved portions of the sample after 10 mL water was added, the test would be continued in a 100 mL cylinder.

[2] = system: hyperalgesia induced by Freund's complete adjuvant (CFA) in rats; assay: Von Frey filament test, CFA induced hyperalgesia in rats; assay type: in vivo, SD rats; settings: for Von Frey Filament Test Values (Mean ± SD), Baseline: pretreatment, n=8; for Von Frey Filament Test Values (Mean ± SD), 15 min: 15 min post treatment; for Von Frey Filament Test Values (Mean ± SD), 2 h: 2 h post treatment
Protocol: Compounds 46 and JK-02A were prepared according to the disclosure of US patent application No. US2008/0176920, and compound JK-02H was prepared according to Example 1. A repeat efficacy study was carried out on the same batch of animals with a single-dose treatment followed by a washing-out period. The 14 days in life studies included two stages: a single low dose treatment assessment on the 7th day and then a single high dose treatment test on the 14th day after CFA injection. On the 7th day after CFA injection, the rats were randomly assigned to respective groups using a computer generated randomization procedure based on the body weight and the baseline values of Von Frey and weight bearing test. Animals received corresponding single dose treatments (vehicle and 3 test articles) on the 7th and 14th days after CFA injection, respectively, and the effect of the test compounds were evaluated. Hyperalgesia of all the study animals was assessed following a single low dose treatment with the test articles on day 7, while a single high dose effect of the test article was evaluated on day 14. The mechanical hyperalgesia and weight bearing were measured on day 7 and day 14 after CFA injection, followed by administration of control or test articles. Von Frey filaments and weight bearing were measured on all the study animals at three time points on day 7, and four time points on day 14. An extra time point assessment was conducted on day 14, considering the strong analgesic effect of the test articles at a higher dose noticed during the test at the 3th time point. Mechanical hyperalgesia of the left hind paw was measured before and during the course of study in all animal groups by determining withdrawal thresholds to Von Frey filament (Bioseb, France). Increasing tensile force perpendicular to the plantar surface of the paw was applied to the filaments. The threshold for paw withdrawal was calculated by taking the average of 2-3 repeated stimuli (unit in “g”). On day 7, Von Frey Filament measurements were conducted three times, at the time points of pretreatment, 15 min and 2 hours post treatment. Following a one-week washing out period, on day 14 after CFA injection, Von Frey Filament tests were performed again four times post a single high dose administration. Rats treated with vehicle or high dose test articles were measured at the time points of pretreatment, 15 min, 2 and 5 hours post treatment. All the results were expressed as mean±SD. One-way analysis of variance (ANOVA) followed by a multiple comparison test were applied among the groups, p<0.05 accepted as significant.

[3] = system: hyperalgesia induced by Freund's complete adjuvant (CFA) in rats; assay: Weight bearing test, CFA induced hyperalgesia in rats; assay type: in vivo, SD rats; settings: for Weight Bearing Test Values (Mean ± SD), Baseline: pretreatment, n=8; for Weight Bearing Test Values (Mean ± SD), 15 min: 15 min post treatment; for Weight Bearing Test Values (Mean ± SD), 2 h: 2 h post treatment
Protocol: Compounds 46 and JK-02A were prepared according to the disclosure of US patent application No. US2008/0176920, and compound JK-02H was prepared according to Example 1. A repeat efficacy study was carried out on the same batch of animals with a single-dose treatment followed by a washing-out period. The 14 days in life studies included two stages: a single low dose treatment assessment on the 7th day and then a single high dose treatment test on the 14th day after CFA injection. On the 7th day after CFA injection, the rats were randomly assigned to respective groups using a computer generated randomization procedure based on the body weight and the baseline values of Von Frey and weight bearing test. Animals received corresponding single dose treatments (vehicle and 3 test articles) on the 7th and 14th days after CFA injection, respectively, and the effect of the test compounds were evaluated. Hyperalgesia of all the study animals was assessed following a single low dose treatment with the test articles on day 7, while a single high dose effect of the test article was evaluated on day 14. The mechanical hyperalgesia and weight bearing were measured on day 7 and day 14 after CFA injection, followed by administration of control or test articles. Von Frey filaments and weight bearing were measured on all the study animals at three time points on day 7, and four time points on day 14. An extra time point assessment was conducted on day 14, considering the strong analgesic effect of the test articles at a higher dose noticed during the test at the 3th time point. Rats distributed body weight unequally on the CFA-injected and contra lateral paws, which was measured by a weight balance changing instrument (Bio-medical, USA). The animals were tested in a box constructed to register the weight load exerted by the hind paws by means of force plates inserted in the floor. The mean weight bearing (unit in “g”) between the CFA-injected paw and the contra-lateral paw was determined in 10 seconds. The weight bearing test of all study animals was conducted at the same time intervals as the mechanical hyperalgesia test. All the results were expressed as mean±SD. One-way analysis of variance (ANOVA) followed by a multiple comparison test were applied among the groups, p<0.05 accepted as significant.

[4] = day 7 after CFA, low dose groups (46 and JK-02A 10 mg/kg, JK-02H 5 mg/kg)
[5] = day 7 after CFA, single low dose i.v. (46 and JK-02A 10 mg/kg, JK-02H 5 mg/kg)
[6] = day 14 after CFA, high dose groups (46 and JK-02A 40 mg/kg, JK-02H 20 mg/kg)
[7] = day 14 after CFA, single high dose i.v. (46 and JK-02A 40 mg/kg, JK-02H 20 mg/kg)
[8] = day 14 after CFA, single high dose i.v. (46 and JK-02A 40 mg/kg, JK-02H 20 mg/kg), 5 h post treatment
[9] = individual animal, high dose i.v. (46 and JK-02A 40 mg/kg, JK-02H 20 mg/kg), two repeated stimuli
[10] = individual animal, low dose i.v. (46 and JK-02A 10 mg/kg, JK-02H 5 mg/kg), two repeated stimuli
[11] = individual animal, high dose i.v. (46 and JK-02A 40 mg/kg, JK-02H 20 mg/kg)
[12] = individual animal, low dose i.v. (46 and JK-02A 10 mg/kg, JK-02H 5 mg/kg)

## CCCOc1ccc(F)c(F)c1C(=O)c1ccc(C(=O)N[C@@H]2CNC[C@H]2NC(=O)c2ccc3cn[nH]c3c2)cc1 [JK-02A]
[1]; about 0.1 g sample, room temperature, water added until dissolved
  Volume of added water: 71.5 mL
[1]; water, thermodynamic from solid
  solubility: 1400 µg/mL (≈ 2560 µM)
[2]; [4]
  Von Frey Filament Test Values (Mean ± SD), Baseline: 6.89 ± 0.99 g
[2]; [5]
  Von Frey Filament Test Values (Mean ± SD), 15 min: 7.64 ± 1.83 g
  Von Frey Filament Test Values (Mean ± SD), 2 h: 7.43 ± 1.62 g
[2]; [6]
  Von Frey Filament Test Values (Mean ± SD), Baseline: 6.73 ± 0.74 g
[2]; [7]
  Von Frey Filament Test Values (Mean ± SD), 15 min: 8.63 ± 1.62 g
  Von Frey Filament Test Values (Mean ± SD), 2 h: 8.82 ± 1.20 g
[2]; [8]
  Von Frey Filament Test Values (Mean ± SD), 5 h: 8.45 ± 2.18 g
[2]; [9]
  Von Frey Values of Individual Animal, Day 14, 15 min: 9.3 g and 8.9 g and 6.5 g and 7.4 g (2×) and 10.9 g and 9.5 g (2×) and 6.1 g and 12.5 g and 10.6 g and 7.6 g and 9.2 g and 8.5 g and 10.7 g and 9.1 g
  Von Frey Values of Individual Animal, Day 14, 2 h: 8.7 g (2×) and 9.8 g and 9.5 g and 9.3 g (2×) and 9.4 g and 9.1 g and 8.5 g and 9.2 g and 8.2 g and 8.9 g and 9.6 g and 10.6 g and 6.2 g and 5.8 g
  Von Frey Values of Individual Animal, Day 14, 5 h: 11.9 g and 13.2 g and 6.7 g and 5.2 g and 8.3 g and 9.2 g and 9.7 g and 9.8 g and 8.8 g and 9.9 g and 6.4 g and 5.7 g and 7.3 g and 8.9 g and 7.4 g and 6.8 g
[2]; [10]
  Von Frey Values of Individual Animal, Day 7, 15 min: 9.1 g (3×) and 8.8 g and 6.3 g and 5.6 g (2×) and 10.2 g and 8.9 g and 10.0 g and 9.5 g (2×) and 5.7 g and 7.3 g and 6.0 g and 9.4 g
  Von Frey Values of Individual Animal, Day 7, 2 h: 6.6 g and 5.6 g and 7.0 g (3×) and 8.3 g and 7.4 g and 6.0 g and 8.9 g and 10.5 g and 10.4 g and 6.5 g and 7.1 g and 7.3 g and 5.1 g and 4.9 g
[2]; individual animal, pretreatment day 7, two repeated stimuli per animal
  First Baseline, Von Frey, individual animal: 5.1 g and 5.9 g and 5.8 g and 6.5 g and 6.9 g and 6.2 g and 5.2 g and 6.8 g (2×) and 7.8 g and 7.3 g and 7.6 g (2×) and 7.9 g and 8.2 g and 8.6 g
[2]; individual animal, pretreatment day 14 after washing-out, two repeated stimuli per animal
  Second Baseline, Von Frey, individual animal: 7.1 g (2×) and 5.3 g and 5.2 g and 7.4 g and 7.3 g and 6.0 g and 7.6 g and 6.4 g (2×) and 6.6 g and 7.7 g and 7.5 g (2×) and 5.8 g and 6.7 g
[3]; [4]
  Weight Bearing Test Values (Mean ± SD), Baseline: 48.18 ± 5.05 g
[3]; [5]
  Weight Bearing Test Values (Mean ± SD), 15 min: 38.11 ± 11.23 g
  Weight Bearing Test Values (Mean ± SD), 2 h: 36.24 ± 9.72 g
[3]; [6]
  Weight Bearing Test Values (Mean ± SD), Baseline: 49.54 ± 7.39 g
[3]; [7]
  Weight Bearing Test Values (Mean ± SD), 15 min: 28.43 ± 8.83 g
  Weight Bearing Test Values (Mean ± SD), 2 h: 33.36 ± 8.92 g
[3]; [8]
  Weight Bearing Test Values (Mean ± SD), 5 h: 42.69 ± 7.52 g
[3]; [11]
  Weight Bearing Values of Individual Animal, Day 14, 15 min, Left: 58.9 g and 57.8 g and 49.6 g and 53.7 g and 52.7 g and 50.9 g and 67.1 g and 72.2 g
  Weight Bearing Values of Individual Animal, Day 14, 15 min, Right: 77.1 g and 95.3 g and 77.6 g and 90.1 g and 80.4 g and 80.1 g and 104.0 g and 85.7 g
  Weight Bearing Values of Individual Animal, Day 14, 15 min, Δ: 18.2 g and 37.5 g and 28.0 g and 36.4 g and 27.7 g and 29.2 g and 36.9 g and 13.5 g
  Weight Bearing Values of Individual Animal, Day 14, 2 h, Left: 66.8 g and 71.9 g and 48.9 g and 60.7 g and 50.1 g and 54.6 g and 44.8 g and 72.2 g
  Weight Bearing Values of Individual Animal, Day 14, 2 h, Right: 97.0 g and 106.5 g and 97.2 g and 81.1 g and 79.8 g and 91.1 g and 86.5 g and 97.7 g
  Weight Bearing Values of Individual Animal, Day 14, 2 h, Δ: 30.2 g and 34.6 g and 48.3 g and 20.4 g and 29.7 g and 36.5 g and 41.7 g and 25.5 g
  Weight Bearing Values of Individual Animal, Day 14, 5 h, Left: 38.0 g and 62.9 g and 55.0 g and 45.7 g and 52.7 g and 39.7 g and 54.9 g and 68.2 g
  Weight Bearing Values of Individual Animal, Day 14, 5 h, Right: 77.2 g and 99.3 g and 93.8 g and 90.7 g and 92.0 g and 99.9 g and 95.3 g and 110.4 g
  Weight Bearing Values of Individual Animal, Day 14, 5 h, Δ: 39.2 g and 36.4 g and 38.8 g and 45.0 g and 39.3 g and 60.2 g and 40.4 g and 42.2 g
[3]; [12]
  Weight Bearing Values of Individual Animal, Day 7, 15 min, Left: 36.6 g and 56.4 g and 47.8 g and 37.9 g and 36.9 g and 50.5 g and 25.4 g and 65.6 g
  Weight Bearing Values of Individual Animal, Day 7, 15 min, Right: 83.8 g and 79.1 g and 74.1 g and 89.5 g and 62.9 g and 93.7 g and 69.1 g and 109.8 g
  Weight Bearing Values of Individual Animal, Day 7, 15 min, Δ: 47.2 g and 22.7 g and 26.3 g and 51.6 g and 26.0 g and 43.2 g and 43.7 g and 44.2 g
  Weight Bearing Values of Individual Animal, Day 7, 2 h, Left: 68.5 g and 68.0 g and 31.5 g and 39.9 g and 43.9 g and 37.3 g and 52.3 g and 62.2 g
  Weight Bearing Values of Individual Animal, Day 7, 2 h, Right: 99.4 g and 85.5 g and 80.7 g and 75.7 g and 77.3 g and 73.4 g and 95.8 g and 105.7 g
  Weight Bearing Values of Individual Animal, Day 7, 2 h, Δ: 30.9 g and 17.5 g and 49.2 g and 35.8 g and 33.4 g and 36.1 g and 43.5 g (2×)
[3]; individual animal, pretreatment day 7, left (CFA-injected) hind paw
  First Baseline, Balance Left, individual animal: 54.2 g and 57.2 g and 45.5 g and 64.4 g and 45.6 g and 12.0 g and 58.0 g and 64.0 g
[3]; individual animal, pretreatment day 7, right hind paw
  First Baseline, Balance Right, individual animal: 103.7 g and 98.1 g and 93.0 g and 117.4 g and 90.5 g and 66.3 g and 100.6 g and 116.7 g
[3]; individual animal, pretreatment day 7, right minus left
  First Baseline, Balance Δ, individual animal: 49.5 g and 40.9 g and 47.5 g and 53.0 g and 44.9 g and 54.3 g and 42.6 g and 52.7 g
[3]; individual animal, pretreatment day 14, left (CFA-injected) hind paw
  Second Baseline, Balance Left, individual animal: 32.1 g and 47.3 g and 30.4 g and 45.9 g and 50.1 g and 39.6 g and 33.5 g and 57.1 g
[3]; individual animal, pretreatment day 14, right hind paw
  Second Baseline, Balance Right, individual animal: 89.3 g and 90.0 g and 81.0 g and 87.2 g and 92.4 g and 90.4 g and 94.1 g and 97.9 g
[3]; individual animal, pretreatment day 14, right minus left
  Second Baseline, Balance Δ, individual animal: 57.2 g and 42.7 g and 50.6 g and 41.3 g and 52.3 g and 50.8 g and 60.6 g and 40.8 g
